Molecular target: T1, recombinant human ULK1 protein (1-649) (Homo sapiens, UniProt O75385)
T1 construct: recombinant human ULK1 protein (1-649, SignalChem #U01-11G); purchased SignalChem U01-11G
T1 sequence (O75385 1-649): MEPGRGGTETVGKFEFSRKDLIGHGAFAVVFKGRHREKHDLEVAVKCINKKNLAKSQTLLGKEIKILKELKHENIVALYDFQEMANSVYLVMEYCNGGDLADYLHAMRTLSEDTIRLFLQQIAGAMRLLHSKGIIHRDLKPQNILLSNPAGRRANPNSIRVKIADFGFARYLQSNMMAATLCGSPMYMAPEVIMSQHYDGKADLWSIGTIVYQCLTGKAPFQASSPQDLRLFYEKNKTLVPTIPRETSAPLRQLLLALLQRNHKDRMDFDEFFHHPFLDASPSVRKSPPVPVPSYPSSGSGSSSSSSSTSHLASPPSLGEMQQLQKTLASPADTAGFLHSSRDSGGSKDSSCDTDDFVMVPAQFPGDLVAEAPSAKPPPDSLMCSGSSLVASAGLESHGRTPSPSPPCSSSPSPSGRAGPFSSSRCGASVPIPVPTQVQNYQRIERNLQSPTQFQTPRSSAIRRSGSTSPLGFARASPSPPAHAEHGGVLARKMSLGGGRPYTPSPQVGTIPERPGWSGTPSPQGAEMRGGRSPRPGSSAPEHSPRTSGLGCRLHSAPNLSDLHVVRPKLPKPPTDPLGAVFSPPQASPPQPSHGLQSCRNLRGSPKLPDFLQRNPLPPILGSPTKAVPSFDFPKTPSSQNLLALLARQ
Test: ULK1 inhibition assay (ADP Glo)
Assay type: biochemical
Conditions: Table 1; 25 uM ATP, MBP substrate, one hour
Description: Illustrative compounds of Formula I and related analogs are shown in Table 1 (along with their respective IC50 values for ULK1 inhibition assays). For ADP Glo assay, IC50s are represented nM, with A representing IC50<1 nM, B representing 10 nM>IC50>1 nM, and C representing IC50>10 nM. NT indicates the compound was not tested. ULK1 inhibition assays were performed in a 5 uL reaction volume containing 2 ug/mL recombinant human ULK1 protein (1-649, SignalChem #U01-11G) and 80 ug/mL myelin basic protein (MBP, Sigma-Aldrich #M1891) in the presence of 25 uM ATP (Sigma-Aldrich A7699). ULK 1 inhibition was assessed after one hour. Compounds were tested in triplicate in a 16-dose IC50 mode with 3-fold serial dilution and a starting dose of 30 uM. Staurosporine, a non-selective protein kinase inhibitor, was used in the assay as a positive control.
According to another embodiment, the present disclosure provides methods of producing the above-defined compounds. The compounds may be synthesized using any suitable techniques. Advantageously, these compounds are conveniently synthesized from readily available starting materials. Synthetic chemistry transformations and methodologies useful in synthesizing the compounds described herein are known in the art and include, for example, those described in R. Larock, Comprehensive Organic Transformations (1989); T. W. Greene and P. G. M. Wuts, Protective Groups in Organic Synthesis, 2d. Ed. (1991); L. Fieser and M. Fieser, Fieser and Fieser's Reagents for Organic Synthesis (1994); and L. Paquette, ed., Encyclopedia of Reagents for Organic Synthesis (1995).). In general, synthesis and measurements of ULK1 inhibitory activity of the compounds described herein was performed using method analogous to those previously described in PCT International Application No. PCT/US2015/046777 which is hereby incorporated by reference in its entirety.

SMILES	IC50
CN1CCc2cc(Nc3nccc(NC4CC4)n3)ccc2C1 [Compound A72]	> 10 nM
O=C(O)c1cnc(Nc2ccc3c(c2)CCNC3)nc1NC1CC1 [Compound A85]	> 10 nM
O=C(C1CCN1)N1CCc2cc(Nc3ncc(C(F)(F)F)c(NC4CC4)n3)ccc2C1 (stereo not shown) [Compound A90]	1 to 10 nM
CS(=O)(=O)CCN1CCc2cc(Nc3ncc(C(F)(F)F)c(NC4CC4)n3)ccc2C1 [Compound A91]	1 to 10 nM
FC(F)(F)c1cnc(Nc2ccc3c(c2)CCN(Cc2ccoc2)C3)nc1NC1CC1 [Compound A92]	1 to 10 nM
FC(F)(F)c1cnc(Nc2ccc3c(c2)CCN(Cc2ccc[nH]2)C3)nc1NC1CC1 [Compound A93]	1 to 10 nM
FC(F)(F)c1cnc(Nc2ccc3c(c2)CN(Cc2cc[nH]c2)CC3)nc1NC1CC1 [Compound A94]	1 to 10 nM
FC(F)(F)c1cnc(Nc2ccc3c(c2)CN(Cc2ccccc2)CC3)nc1NC1CC1 [Compound A95]	> 10 nM
N[C@@H](CO)C(=O)N1CCc2ccc(Nc3ncc(C(F)(F)F)c(NC4CC4)n3)cc2C1 [Compound A96]	> 10 nM
FC(F)(F)c1cnc(Nc2ccc3c(c2)CN(CCN2CCOCC2)CC3)nc1NC1CC1 [Compound A97]	1 to 10 nM
CC(=O)N1CCc2ccc(Nc3ncc(C(F)(F)F)c(NC4CC4)n3)cc2C1 [Compound A98]	1 to 10 nM
CN1CCN(C(=O)N2CCc3ccc(Nc4ncc(C(F)(F)F)c(NC5CC5)n4)cc3C2)CC1 [Compound A99]	1 to 10 nM
FC(F)(F)c1cnc(Nc2ccc3c(c2)CN(C2COC2)CC3)nc1NC1CC1 [Compound A102]	1 to 10 nM
NCCN1CCc2ccc(Nc3ncc(C(F)(F)F)c(NC4CC4)n3)cc2C1 [Compound A103]	1 to 10 nM
CS(=O)(=O)N1CCc2ccc(Nc3ncc(C(F)(F)F)c(NC4CC4)n3)cc2C1 [Compound A104]	1 to 10 nM
FC(F)(F)c1cnc(Nc2ccc3c(c2)CN(Cc2c[nH]cn2)CC3)nc1NC1CC1 [Compound A105]	1 to 10 nM
OCCN1CCc2ccc(Nc3ncc(C(F)(F)F)c(NC4CC4)n3)cc2C1 [Compound A106]	1 to 10 nM
FC(F)(F)c1cnc(Nc2ccc3c(c2)CN(CC2CCNC2)CC3)nc1NC1CC1 (stereo not shown) [Compound A107]	> 10 nM
Cn1cnc(CN2CCc3ccc(Nc4ncc(C(F)(F)F)c(NC5CC5)n4)cc3C2)c1 [Compound A111]	1 to 10 nM
Nc1ccc(CN2CCc3cc(Nc4ncc(C(F)(F)F)c(NC5CC5)n4)ccc3C2)cc1 [Compound A112]	> 10 nM
O=C(CN1CCOCC1)N1CCc2cc(Nc3ncc(C(F)(F)F)c(NC4CC4)n3)ccc2C1 [Compound A115]	1 to 10 nM
O=S(=O)(C1CC1)N1CCc2cc(Nc3ncc(C(F)(F)F)c(NC4CC4)n3)ccc2C1 [Compound A116]	1 to 10 nM
CNC(=O)c1ccccc1Oc1nc(Nc2ccc3c(c2)CCN(CCOC)C3)ncc1C(F)(F)F [Compound A121, 2-((2-((2-(2-Methoxyethyl)-1,2,3,4-tetrahydroisoquinolin-6-yl)amino)-5-(trifluoromethyl)pyrimidin-4-yl)oxy)-N-methylbenzamide]	> 10 nM
COCCN1CCc2cc(Nc3ncc(C(F)(F)F)c(N4CCc5ccccc54)n3)ccc2C1 [Compound A123, N-(4-(Indolin-1-yl)-5-(trifluoromethyl)pyrimidin-2-yl)-2-(2-methoxyethyl)-1,2,3,4-tetra-hydroisoquinolin-6-amine]	> 10 nM
CNC(=O)c1ccccc1Oc1nc(Nc2ccc3c(c2)CCN(CCOC)C3)ncc1Cl [Compound A124, 2-((5-chloro-2-((2-(2-methoxyethyl)-1,2,3,4-tetrahydroisoquinolin-6-yl)amino)pyrimidin-4-yl)oxy)-N-methylbenzamide]	> 10 nM

Other lines, results leading:

IC50	SMILES
< 1 nM	Cn1cc(CN2CCc3cc(Nc4ncc(C(F)(F)F)c(NC5CC5)n4)ccc3C2)cn1 [Compound A62]
< 1 nM	Cn1nccc1CN1CCc2cc(Nc3ncc(C(F)(F)F)c(NC4CC4)n3)ccc2C1 [Compound A63]
< 1 nM	CN1CCc2cc(Nc3ncc(C(N)=O)c(NC4CC4)n3)ccc2C1 [Compound A64]
< 1 nM	CN1CCc2cc(Nc3ncc(Br)c(NC4CC4)n3)ccc2C1 [Compound A65]
< 1 nM	O=C(CCO)N1CCc2cc(Nc3ncc(C(F)(F)F)c(NC4CC4)n3)ccc2C1 [Compound A68]
< 1 nM	CC(=O)CN1CCc2cc(Nc3ncc(C(F)(F)F)c(NC4CC4)n3)ccc2C1 [Compound A69]
< 1 nM	CC(O)CN1CCc2cc(Nc3ncc(C(F)(F)F)c(NC4CC4)n3)ccc2C1 (stereo not shown) [Compound A70]
< 1 nM	CN(C)c1ccc(CN2CCc3cc(Nc4ncc(C(F)(F)F)c(NC5CC5)n4)ccc3C2)cc1 [Compound A71]
< 1 nM	CN1CCC(N2CCc3cc(Nc4ncc(C(F)(F)F)c(NC5CC5)n4)ccc3C2)CC1 [Compound A73]
< 1 nM	CN(C)C(=O)CN1CCc2cc(Nc3ncc(C(F)(F)F)c(NC4CC4)n3)ccc2C1 [Compound A74]
< 1 nM	FC(F)(F)c1cnc(Nc2ccc3c(c2)CCN(Cc2ccncn2)C3)nc1NC1CC1 [Compound A75]
1 to 10 nM	NS(=O)(=O)N1CCc2ccc(Nc3ncc(C(F)(F)F)c(NC4CC4)n3)cc2C1 [Compound A76]
< 1 nM	Oc1ccc(CN2CCc3cc(Nc4ncc(C(F)(F)F)c(NC5CC5)n4)ccc3C2)cc1 [Compound A77]
< 1 nM	FC(F)(F)c1cnc(Nc2ccc3c(c2)CN(CCS)CC3)nc1NC1CC1 [Compound A78]
1 to 10 nM	FC(F)(F)c1cnc(Nc2ccc3c(c2)CN(CC2OCCO2)CC3)nc1NC1CC1 [Compound A79]
1 to 10 nM	NOCC(=O)N1CCc2cc(Nc3ncc(C(F)(F)F)c(NC4CC4)n3)ccc2C1 [Compound A80]
< 1 nM	CSCCN1CCc2ccc(Nc3ncc(C(F)(F)F)c(NC4CC4)n3)cc2C1 [Compound A81]
< 1 nM	FC(F)(F)c1cnc(Nc2ccc3c(c2)CN(Cc2ccncc2)CC3)nc1NC1CC1 [Compound A82]
1 to 10 nM	NCC(=O)N1CCc2ccc(Nc3ncc(C(F)(F)F)c(NC4CC4)n3)cc2C1 [Compound A83]
< 1 nM	COCCN1CCc2ccc(Nc3ncc(C(F)(F)F)c(NC4CC4)n3)cc2C1 [Compound A86]
1 to 10 nM	COC(=O)CC(=O)N1CCc2ccc(Nc3ncc(C(F)(F)F)c(NC4CC4)n3)cc2C1 [Compound A87]
1 to 10 nM	O=C(O)CCN1CCc2ccc(Nc3ncc(C(F)(F)F)c(NC4CC4)n3)cc2C1 [Compound A88]
1 to 10 nM	FC(F)(F)c1cnc(Nc2ccc3c(c2)CN(Cc2ccco2)CC3)nc1NC1CC1 [Compound A89]
< 1 nM	O=C(CN1CCc2ccc(Nc3ncc(C(F)(F)F)c(NC4CC4)n3)cc2C1)N1CCOCC1 [Compound A100]
< 1 nM	FC(F)(F)c1cnc(Nc2ccc3c(c2)CN(Cc2ccoc2)CC3)nc1NC1CC1 [Compound A101]
< 1 nM	FC(F)(F)c1cnc(Nc2ccc3c(c2)CN(Cc2cncnc2)CC3)nc1NC1CC1 [Compound A108]
< 1 nM	FC(F)(F)c1cnc(Nc2ccc3c(c2)CN(Cc2ccncn2)CC3)nc1NC1CC1 [Compound A109]
< 1 nM	FC(F)(F)c1cnc(Nc2ccc3c(c2)CN(C2CNC2)CC3)nc1NC1CC1 [Compound A110]
< 1 nM	COc1ccc(CN2CCc3cc(Nc4ncc(C(F)(F)F)c(NC5CC5)n4)ccc3C2)cc1 [Compound A113]
< 1 nM	CN1CCC(N2CCc3cc(Nc4ncc(C(F)(F)F)c(NC5CC5)n4)ccc3C2)C1 (stereo not shown) [Compound A114]
